# Reference: patent US20150315241A1, “Antibiotic Peptides” (priority 2007, published 2015)
# Test system: human erythrocytes
# Assay: Hemolytic assay
# Type: cell-based
# Conditions: 1 h 37° C., relative to 0.1% Triton X-100, peptide concentration 600 μg/mL
# Method: To determine whether the peptides and peptide derivatives according to the invention were toxic to mammalian cells, several peptides and peptidomimetics from Example 1 above, a positive control, and a negative control were examined for hemolytic activity. The hemolytic activity was assayed with human erythrocytes. A human erythrocyte concentrate was provided in sodium chloride […]-glucose-mannitol buffer from the Leipzig University Hospital (Leipzig, Germany). The erythrocytes were centrifuged at 1000 G and washed three times with 10 volumes of cold phosphate-buffered saline (PBS, pH 7.4). The erythrocytes were diluted to a final concentration of 1% in PBS. One hundred microliters of this human erythrocyte suspension in PBS was added to each well of a V-shaped 96-well polypropylene microtiter plate (Greiner Bio-One GmbH). […] The microtiter plate was incubated at 37° C. for 1 h and subsequently centrifuged for 10 min at 1000 G. One hundred microliters of the supernatant was transferred to a 96-well flat-bottomed polystyrene microtiter plate (Greiner Bio-One GmbH) and the absorption at 405 nm recorded in a micro plate spectrophotometer (Tecan) to evaluate the heme release. […] The hemolysis percentage was calculated by the following equation[44]: ([…])×100% with E=Extinction at 405 nm All hemolytic assays were performed in duplicates. […]
substance,measurement,value
(p-tert-Octylphenoxy)polyethoxyethanol [Triton X-100 ®],Haemolysis rate,100%
